Test results from patent US20140242093A1, “METHODS AND COMPOSITIONS FOR MODULATING THE INNATE IMMUNE RESPONSE AND/OR MYOGENESIS IN A MAMMALIAN SUBJECT” (FRED HUTCHINSON CANCER RESEARCH CENTER, priority 2011, published 2014).

Tested on: human genome (hg18)
Assay: ChIP-Seq of DUX4 binding sites in transduced primary myoblasts
Conditions: for max.cov (peak height): non-repeat binding site
Protocol: Non-redundant reads unambiguously mapped to the human genome were computationally extended to a total length of 200 nucleotides and “peaks” were defined as regions where the number of reads was higher than a statistical threshold compared to the background, as described below. Reads mapping to the X and Y chromosomes were excluded from the analysis.
ChIP was performed and ChIP DNA samples were prepared as previously described in Cao et al., Dev. Cell 18:662-674 (2010), hereby incorporated herein by reference. […] Anti-DUX4 N-terminus polyclonal antibodies FH106 and FH107 were combined to immunoprecipitate DUX4-s. The samples were sequenced with Illumina Genome Analyzer II.
Sequences were extracted by Illumina package GApipeline and reads were aligned using BWA to the human genome (hg18). The inventors only kept one of the duplicated sequences to minimize the artifacts of PCR amplification. Each read was extended in the sequencing orientation to a total of 200 bases to infer the coverage at each genomic position. Peak calling was performed by a house developed R package “peakSig” (pending submission to Bioconductor), which model background reads by a negative binomial distribution. The negative binomial distribution can be viewed as a continuous mixture of Poisson distribution where the mixing distribution of the Poisson rate is modeled as a Gamma prior. This prior distribution is used to capture the variation of background reads density across the genome. Model parameters were estimated by fitting the truncated distribution on the number of bases with low coverage (one to three), to avoid the problem of inferring effective genome size excluding the non-mappable regions, and to eliminate contamination of any foreground signals in the high coverage regions. The inventors also fit a GC dependent mixture model so that the significance of the peaks is determined not only by peak height, but also by the GC content of the neighboring genomic regions.
Discriminative motif discovery was carried out as described in Palii et al. (2011), in which motifs were identified that distinguish a positive and a negative sequence dataset, which in this study, the positive sequences correspond to Dux4 binding sites and negative sequences correspond to the randomly sampled flanking regions of Dux4 binding sites. To generate more accurate presentation of the Dux4 binding sites from the consensus pattern returned by this analysis, the inventors tried to learn a positional weight matrix (PWM) model, using the matches of the consensus pattern as the seed to initialize the iterative expectation-maximization (EM) refinement process similar to MEME. If appropriate, the motifs are extended iteratively as long as there is sequence preference in the flanking region, and refined in the same EM process.
The inventors associated a peak to its closest TSS within the region flanked by CTCF binding sites, which were identified in a ChIP-seq experiment on human CD4+ T cells (GEO accession number GSE12889/GSM325895).

[1] = repeat family DNA/TcMar-Mariner
[2] = repeat family DNA/hAT-Blackjack

## DUX4-fl: full-length DUX4 protein (SEQ ID NO:110), expressed from lentiviral or pCS2 vectors or in vitro translated
SNAI1, chr20, dist2tss 769
  max.cov (peak height): 62
SON, chr21, dist2tss −2951
  max.cov (peak height): 244
SPRYD5, chr11, dist2tss −2855
  max.cov (peak height): 133
SPTY2D1, chr11, dist2tss 5934
  max.cov (peak height): 74
SPTY2D1, chr11, dist2tss −797
  max.cov (peak height): 105
SRRT, chr7, dist2tss 1546
  max.cov (peak height): 128
SYNJ1, chr21, dist2tss −766
  max.cov (peak height): 229
TAF4B, chr18, dist2tss −1741
  max.cov (peak height): 65
TFIP11, chr22, dist2tss −1353
  max.cov (peak height): 234
TRIM43, chr2, dist2tss 1385
  max.cov (peak height): 47
TRIM43, chr2, dist2tss −5584
  max.cov (peak height): 85
TRIM48, chr11, dist2tss −151
  max.cov (peak height): 178
TRIM49L1, chr11, dist2tss 200
  max.cov (peak height): 85
TRIM49L2, chr11, dist2tss −202
  max.cov (peak height): 109
USP29, chr19, dist2tss 2090
  max.cov (peak height): 104
USP29, chr19, dist2tss 3676
  max.cov (peak height): 66
ZNF217, chr20, dist2tss 3546
  max.cov (peak height): 122
ZNF217, chr20, dist2tss −2168
  max.cov (peak height): 55
ZNF296, chr19, dist2tss 182
  max.cov (peak height): 110
ZNF705A, chr12, dist2tss −5106
  max.cov (peak height): 224
ZSCAN4, chr19, dist2tss 1430
  max.cov (peak height): 364
ZSCAN5B, chr19, dist2tss 4892
  max.cov (peak height): 89
ZSCAN5B, chr19, dist2tss −4101
  max.cov (peak height): 67
ZSCAN5B, chr19, dist2tss −5014
  max.cov (peak height): 98
hCG_1651160, chr7, dist2tss −192
  max.cov (peak height): 215
hCG_1651160, chr7, dist2tss −892
  max.cov (peak height): 114
[1]
  DUX4-fl Binding Prevalence (fraction of all DUX4-fl peaks): 0.00105
  DUX4-fl Enrichment (binding prevalence/overall genome prevalence): 1.14
Repeat family DNA/TcMar-Tigger
  DUX4-fl Binding Prevalence (fraction of all DUX4-fl peaks): 0.0124
  DUX4-fl Enrichment (binding prevalence/overall genome prevalence): 1.11
[2]
  DUX4-fl Binding Prevalence (fraction of all DUX4-fl peaks): 0.00064
  DUX4-fl Enrichment (binding prevalence/overall genome prevalence): 0.57
Repeat family DNA/hAT-Charlie
  DUX4-fl Binding Prevalence (fraction of all DUX4-fl peaks): 0.00761
  DUX4-fl Enrichment (binding prevalence/overall genome prevalence): 0.51
Repeat family DNA/hAT-Tip100
  DUX4-fl Binding Prevalence (fraction of all DUX4-fl peaks): 0.00098
  DUX4-fl Enrichment (binding prevalence/overall genome prevalence): 0.45
Repeat family DNA/hAT?
  DUX4-fl Binding Prevalence (fraction of all DUX4-fl peaks): 0.00016
  DUX4-fl Enrichment (binding prevalence/overall genome prevalence): 0.94
Repeat family LINE/CR1
  DUX4-fl Binding Prevalence (fraction of all DUX4-fl peaks): 0.00356
  DUX4-fl Enrichment (binding prevalence/overall genome prevalence): 1.00
Repeat family LINE/L1
  DUX4-fl Binding Prevalence (fraction of all DUX4-fl peaks): 0.0938
  DUX4-fl Enrichment (binding prevalence/overall genome prevalence): 0.58
Repeat family LINE/L2
  DUX4-fl Binding Prevalence (fraction of all DUX4-fl peaks): 0.02978
  DUX4-fl Enrichment (binding prevalence/overall genome prevalence): 0.86
Repeat family LTR/ERV
  DUX4-fl Binding Prevalence (fraction of all DUX4-fl peaks): 0.00032
  DUX4-fl Enrichment (binding prevalence/overall genome prevalence): 5.33
Repeat family LTR/ERV1
  DUX4-fl Binding Prevalence (fraction of all DUX4-fl peaks): 0.01878
  DUX4-fl Enrichment (binding prevalence/overall genome prevalence): 0.72
Repeat family LTR/ERVK
  DUX4-fl Binding Prevalence (fraction of all DUX4-fl peaks): 0.00803
  DUX4-fl Enrichment (binding prevalence/overall genome prevalence): 2.97
Repeat family LTR/ERVL
  DUX4-fl Binding Prevalence (fraction of all DUX4-fl peaks): 0.04558
  DUX4-fl Enrichment (binding prevalence/overall genome prevalence): 2.50
Repeat family LTR/ERVL-MaLR
  DUX4-fl Binding Prevalence (fraction of all DUX4-fl peaks): 0.3572
  DUX4-fl Enrichment (binding prevalence/overall genome prevalence): 9.92
Repeat family LTR/Gypsy
  DUX4-fl Binding Prevalence (fraction of all DUX4-fl peaks): 0.00081
  DUX4-fl Enrichment (binding prevalence/overall genome prevalence): 1.07
Repeat family SINE/Alu
  DUX4-fl Binding Prevalence (fraction of all DUX4-fl peaks): 0.00777
  DUX4-fl Enrichment (binding prevalence/overall genome prevalence): 0.08
Repeat family SINE/MIR
  DUX4-fl Binding Prevalence (fraction of all DUX4-fl peaks): 0.02317
  DUX4-fl Enrichment (binding prevalence/overall genome prevalence): 0.82
Repeat family SINE/tRNA
  DUX4-fl Binding Prevalence (fraction of all DUX4-fl peaks): 0.00011
  DUX4-fl Enrichment (binding prevalence/overall genome prevalence): 1.57
Repeat family Satellite
  DUX4-fl Binding Prevalence (fraction of all DUX4-fl peaks): 0.00068
  DUX4-fl Enrichment (binding prevalence/overall genome prevalence): 0.66
Repeat family Satellite/centr
  DUX4-fl Binding Prevalence (fraction of all DUX4-fl peaks): 0.00047
  DUX4-fl Enrichment (binding prevalence/overall genome prevalence): 0.19
Repeat family Simple_repeat
  DUX4-fl Binding Prevalence (fraction of all DUX4-fl peaks): 0.00442
  DUX4-fl Enrichment (binding prevalence/overall genome prevalence): 0.53
Repeat family Unknown
  DUX4-fl Binding Prevalence (fraction of all DUX4-fl peaks): 0.00063
  DUX4-fl Enrichment (binding prevalence/overall genome prevalence): 1.47
Repeat family rRNA
  DUX4-fl Binding Prevalence (fraction of all DUX4-fl peaks): 1.00E−04
  DUX4-fl Enrichment (binding prevalence/overall genome prevalence): 1.67
